The results in this text go back to patent US8367004B2, “Apparatus and methods for nanoparticle generation and process intensification of transport and reaction systems” (Microfluidics International Corporation, priority 2008, dated 2013).

Common to all, as to type: physicochemical
The nature of data set [1]: Solubility of NFN in water/DMSO mixtures (batch, gravimetric). Particulars: for NFN solubility / % NFN precipitation from saturated DMSO solution: 20° C. The method, then:
Water was mixed with a DMSO-NFN solution of known concentration, while maintaining miscible conditions, to obtain a super-saturation state. […] The crystals were filtered from the liquid, then dried in a vacuum oven for about 10 hours at 90° C., and weighed. The filtered liquid phase was evaporated to dryness and the mass of the solid residue determined gravimetrically. The mass balance of the NFN (total amount recovered/amount dissolved) was also determined to establish precision of the solubility limit estimate. The closure was always greater than 90 percent.
(§1) The solubility data were used to estimate super-saturation ratios and the theoretical efficiency of the process, which is defined as the percentage of the drug present in the solvent that precipitates as the solvent and antisolvent streams mix.

Data set [2] can be described thus: Particle size analysis of drug nanosuspensions by light scattering. The protocol:
Crystallization experiments were performed using an exemplary reaction processor of the type depicted in FIG. 3. The solvent phase was fed into an intensifier pump using a peristaltic pump. The water phase was placed in the inlet reservoir and gravity fed. The two streams were blended at the inlet to the intensifier pump, noting that a low level of macro-mixing will occur at this process stage.
The total flow rate through the system was controlled by the microreactor design and process pressure. By varying the flow rate through the peristaltic pump at each processing pressure, various mixing ratios of the two streams were achieved. The following solvent-to-water volume ratios were examined: 1:3, 1:4, and 1:10. Equivalently, the water concentrations in the final mixture by weight were […], respectively. A total of 250 ml were processed in each experiment.
In addition to super-saturation, the effect of process pressure, NFN concentration in the solvent stream, and the presence of a surfactant were investigated. […] The concentration of NFN in DMSO varied from 5 to 20 mg NFN/ml DMSO. To determine if a surface active agent could help control particle size, a 1% aqueous solution of Suluton (BASF) was used to replace water as the anti-solvent, the concept being that the hydrophobic group of this amphoteric molecule would interact with the crystal surface at some threshold size, forming a barrier to further transport to and/or along the surface.
To provide appropriate controls for comparison, additional crystal production experiments were conducted by mixing the NFN/DMSO solution with water in a beaker at very low shear conditions. After mixing to obtain uniformity, NFN was allowed to form crystals under quiescent conditions. Size and shape characterization studies were performed. The crystals were then suspended in a saturated solution to conduct particle size reduction experiments under high shear rates using standard Microfluidizer® technology. The purpose was to compare this size reduction process on already grown crystals (“top-down” process) with the in situ process of growing crystal to the desired size with the apparatus/system of the present disclosure (“bottom-up” process).
The particle size distribution of the nano-suspensions was measured by two different methods: • (a) Light scattering using a Horiba 910 particle size analyzer: This instrument has a wide dynamic range of between 20 nm-1000 microns. • (b) Dynamic light scattering using a Malvern NanoS particle size analyzer: This instrument has a dynamic range of 0.5 nm-6 microns
(§2) Crystallization experiments using the disclosed apparatus/system were conducted at 138 and 83 MPa (20,000 and 12,000 psi) process pressures. […] The solvents were either dimethyl sulfoxide (DMSO) or N-Methyl-2-Pyrrolidone (NMP), and the antisolvent was water (see TABLE 3). Of note, alternative solvents include methanol, ethanol, acetone, dichloromethane, octanol and isopropyl alcohol, and alternative antisolvents include hexane and heptane. The water volume flow rate was typically 3-10 times the solvent volume flow rate, resulting in supersaturation between 1.4 and 9.
For the “top down” control experiments, suspensions of micron size crystals were processed with a conventional Microfluidizer® high shear processor. These crystals had been grown under no shear conditions by pouring the solvent and antisolvent streams into a beaker and then allowing the crystals to grow without stirring the fluids.
(§3) Material characterization was performed in the same manner as described above with reference to Example 1.

Data set [3] is described as follows: Electron microscopy of particle dimensions and shape. The method, then: A Hitachi S-4800 field-emission SEM was used to examine the surface structure and shape of the drug particles and also to verify qualitatively the particle size obtained from the particle size analyzers.
as §3

A short description of data set [4]: XRD percent crystallinity and crystallite size. The protocol: The samples were analyzed using a Rigaku Ultima III diffractometer. XRD analysis was used to investigate the effect of the processing conditions on the crystalline characteristics, i.e., structure, percent of crystallinity and crystallite size of NFN.
Data set [5] in a line: Theoretical efficiency of solvent/antisolvent crystallization. Particulars: 138 MPa.
From the text: as §1

A short description of data set [6]: Stability of nanosuspensions. The method, then:
as §2
A surfactant was added to the antisolvent (water) in order to: (a) stabilize the nanoparticles and limit their growth, and (b) minimize agglomeration of the particles and to thereby create a stable suspension. Two non-ionic surfactants were used, Solutol® HS 15 (polyoxyethylene esters of 12-hydroxystearic acid; […]) and a hydrophobically modified inulin polymeric surfactant, INUTEK SP1 (Orafti).

Data set [7] can be described thus: Mass transfer study, octanol phase to water phase. The conditions noted are these: transfer from an octanol phase to a water phase. The protocol: The interfacial area in process intensification equipment can be quantified by performing mass transfer studies. In particular, a solute is introduced into the system of interest (e.g. methanol and soybean oil) and the mass transfer rate of this solute from one phase to the other is measured. The interfacial area can then be calculated. In order to accomplish this determination, it is necessary to have an estimate of the mass transfer coefficients in the individual phases—which can be determined through bench-top experiments. Reactant systems may be processed in the disclosed apparatus/system and a measurement of inlet concentration of the solute is made. The system is run at different flow rates until the concentration at the outlet is equal to the equilibrium concentration. […] The interfacial area can then be obtained.

Setting [8] is: 138 MPa, 5 mg NFN/ml DMSO, DMSO:water 1:4, passed twice, Horiba.
The mark [9] stands for this setting: NFN nanosuspension from disclosed system, SEM.
Where [10] appears, read: overnight, particles produced with disclosed system.
Setting [11] is: particles produced with control method.
Where [12] appears, read: Disclosed System, solvent, surfactant, pressure per Table 3.
Where [13] appears, read: suspension from Disclosed System.
[14] abbreviates: Control (beaker, no shear), Solutol, SLS.

“And” between values parts separate entries of the source, which are not always exact repeats. Equal values may be shown once.

For `CCn1cc(C(=O)O)c(=O)c2cc(F)c(N3CCNCC3)cc21` [NFN, Norfloxacin], the NFN solubility in data set [1] (0.00 wt % water in water/DMSO solution) amounted to 21.00 mg drug/g solution; in data set [1] (9.17 wt % water in water/DMSO solution), 7.18 mg drug/g solution; in data set [1] (28.04 wt % water in water/DMSO solution), 1.57 mg drug/g solution; in data set [1] (47.62 wt % water in water/DMSO solution) it was 0.86 mg drug/g solution; in data set [1] (57.69 wt % water in water/DMSO solution) it was 0.64 mg drug/g solution; in data set [1] (73.17 wt % water in water/DMSO solution), 0.71 mg drug/g solution. Further, the NFN solubility in data set [1] (90.19 wt % water in water/DMSO solution) was 0.00 mg drug/g solution. Also, the “% NFN precipitation from saturated DMSO solution” value was 0.00% in data set [1] (0.00 wt % water); 43.39% in data set [1] (9.17 wt % water); 91.43% in data set [1] (47.62 wt % water); 92.86% in data set [1] (57.69 wt % water); 89.52% in data set [1] (73.17 wt % water); 100.00% in data set [1] (90.19 wt % water). Besides, in data set [1] (50 wt % water), the “% of NFN that precipitates” value is “about 92%”. In addition, in data set [1] (ambient temperature), the “solubility limit of NFN in DMSO” value is listed as “about 21 mg NFN/g DMSO”. Besides, in data set [1] (dilution of DMSO solution to 28 wt % water), the “reduction of NFN solubility” value is on record as “over 13 times”. The median particle size result in data set [2] (60 MPa, 10 mg/ml DMSO, DMSO:water 1:4, passed twice) is on record as “approximately 320 nm”; in data set [2] (setting [8]) it was 186 nm; in data set [2] (138 MPa, DMSO:water 1:4, passed twice, 5 mg NFN/g DMSO) it was “approximately 190 nm”; in data set [2] (138 MPa, DMSO:water 1:4, passed twice, 20 mg NFN/g DMSO), approximately 340 nm; in data set [2] (140 MPa, 10 mg/ml DMSO, DMSO:water 1:4, passed twice) it was “about 200 nm”; in data set [2] (NFN nanosuspensions, range over all Example 1 experiments) it was 170-350 nm. Moreover, the figures for the median particle size in data set [2] (control crystals after 30 passes at 207 MPa in standard Microfluidizer (top-down)), in data set [2] (with Suluton surfactant) and in data set [2] (without surfactant) were 428 nm, 204 nm and 209 nm, respectively. Also, the “peak of particle size distribution” value in data set [2] (setting [8]) stood at 166 nm. Also, in data set [3] (setting [9]), the needle length is on record as 200-300 nm. In data set [3] (setting [9]), the needle width is 70-100 nm. The particle length result in data set [3] (crystallized in low shear environment (control)) is given as “up to 1 mm”. For the same compound, the “Average Crystallite Size” value is 441 Å in data set [4] (As purchased), 239 Å in data set [4] (Re-crystallized (high shear)), 275 Å in data set [4] (Re-crystallized (low shear)) and 727 Å in data set [4] (Re-crystallized (no shear)). Further, the “Percent Crystallinity (±4%)” value is 84.1% in data set [4] (As purchased); 79.7% in data set [4] (Re-crystallized (high shear)); 78% and 77.8% in data set [4] (Re-crystallized (low shear)); 85% and 85.1% in data set [4] (Re-crystallized (no shear)). In addition, the “theoretical efficiency (percentage of NFN that precipitates)” value in data set [5] (supersaturation ratio about 1.5) worked out at 32%; in data set [5] (supersaturation ratio about 7) it was 85%.

Consider `CCOC(=O)N1CCC(=C2c3ccc(Cl)cc3CCc3cccnc32)CC1` [Loratadine], for which the “median particle size” value is on record as 332 nm in data set [2] (Disclosed System, INUTEK (DMSO), DLS); 379 nm in data set [2] (Disclosed System, INUTEK (NMP), DLS); 90 nm in data set [2] (Disclosed System, Solutol (DMSO), DLS); 183 nm in data set [2] (Disclosed System, Solutol (NMP), DLS). Besides, the particle size in data set [2] (INUTEK as surfactant) is given as 332-379 nm. Moreover, the initial particle size entry in data set [2] (Solutol as surfactant, DMSO and NMP) is listed as “about 90 nm”. Besides, the Shape entry was “Needle” in data set [3] (Disclosed System, INUTEK (DMSO)) and “Needle” in data set [3] (Disclosed System, INUTEK (NMP)). Also, the needle length in data set [3] (setting [10]) is reported as 10-20 microns; in data set [3] (setting [11]), “hundreds of microns”. The needle width in data set [3] (setting [10]) was 0.5-2 microns; in data set [3] (setting [11]), “tens of microns”.

Take `CC[C@H]1OC(=O)[C@H](C)[C@@H](O[C@H]2C[C@@](C)(OC)[C@@H](O)[C@H](C)O2)[C@H](C)[C@@H](O[C@@H]2O[C@H](C)C[C@H](N(C)C)[C@H]2O)[C@](C)(O)C[C@@H](C)CN(C)[C@H](C)[C@@H](O)[C@]1(C)O` [Azithromycin]: in data set [2] (setting [12]), the “median particle size” value is 50-100 nm. In addition, the Shape result in data set [3] (Disclosed System) was “Spheroidal”. Further, the stability of nanosuspension result in data set [6] (in solvent and antisolvent mixture, and in water after solvent removed) was “stable”. Moreover, the Stability entry in data set [6] (setting [13]) is on record as “Stable”.

As for `CC(=O)Oc1ccccc1C(=O)O` [aspirin], the interfacial transfer coefficients in data set [7] is recorded as not above 0.5 m/s.

Turning to `NC(=O)N1c2ccccc2CC(=O)c2ccccc21` [Oxycarbazepine], the “Median Particle Size (needle length)” value in data set [2] (setting [14]) is given as 20,000 nm. Moreover, the “Median Particle Size (needle width)” value in data set [2] (setting [14]) was found to be 5000 nm. Further, the “median particle size” value came to 1200 nm in data set [2] (Control with site reduction after 25 passes, SLS); 767 nm in data set [2] (setting [12]); 1.2 microns in data set [2] (control sample after 25 passes through standard Microfluidizer processor). The “particles by volume in the range of 2.5-6 microns” value in data set [2] (Disclosed System) is on record as “about 5%”. Further, the “larger peak of bimodal particle size distribution” value in data set [2] (Disclosed System, SLS) is reported as “about 1 micron”. The “smaller peak of bimodal particle size distribution” value in data set [2] (Disclosed System, SLS) is reported as “about 340 nm”. Also, in data set [2] (control conditions (beaker)), the needle length result was “about 20 microns”. Further, in data set [2] (control conditions (beaker)), the needle width entry is on record as “about 5 microns”. For the same compound, the “population of particles with sizes in the range of 4-6 microns” value in data set [2] (control sample after 25 passes) is “about 5%”. Further, the Shape result in data set [3] (Control) is on record as “Needle”. In addition, the Stability entry in data set [6] (Control) was “Stable”; in data set [6] (Control with site reduction after 25 passes), “Stable”; in data set [6] (setting [13]) it was “Stable”; in data set [6] (suspension from Disclosed System, listed as oxycarbazepine) it was “stable”.
